Columns and labels:
[1] = system: Rabbit Psoas myofibrils (skeletal myosin ATPase); assay: Myofibril ATPase assay, rabbit psoas (skeletal) myofibrils; format: biochemical
Outline: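 Values are concentrations giving 75% (Y75) or 125% (Y125) of vehicle ATPase activity, from 4-parameter logistic fits of normalized rates. Rates came from linear regression of A340 over 75 min, NADH oxidation coupled to ADP via PK-LDH. Enzyme source: skeletal myofibrils from rabbit psoas, pH 7.0 pCa buffer.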

[2] = system: Porcine atria myofibrils (atrial myosin ATPase); assay: Myofibril ATPase assay, porcine atria myofibrils; format: biochemical
Outline: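 Y75 (25% inhibition) or Y125 (activation) values come from 4-parameter logistic fits of vehicle-normalized rates. Rates are linear-regression slopes of NADH absorbance at 340 nm, read kinetically over 75 min, with ADP coupled to NADH oxidation via pyruvate kinase/lactate dehydrogenase.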

[3] = target: T1, Porcine ventricle myofibrils (ventricular myosin ATPase) (Sus scrofa, UniProt P79293); assay: Myofibril ATPase assay, porcine ventricle myofibrils; format: biochemical, porcine (Yucatan minipigs)
T1 construct: Myofibrils from porcine cardiac muscle was isolated from the left ventricle of Yucatan minipigs; tissue Exemplar Genetics; host or cells: left ventricle of Yucatan minipigs, myofibrils prepared in house
T1 sequence (P79293 whole entry): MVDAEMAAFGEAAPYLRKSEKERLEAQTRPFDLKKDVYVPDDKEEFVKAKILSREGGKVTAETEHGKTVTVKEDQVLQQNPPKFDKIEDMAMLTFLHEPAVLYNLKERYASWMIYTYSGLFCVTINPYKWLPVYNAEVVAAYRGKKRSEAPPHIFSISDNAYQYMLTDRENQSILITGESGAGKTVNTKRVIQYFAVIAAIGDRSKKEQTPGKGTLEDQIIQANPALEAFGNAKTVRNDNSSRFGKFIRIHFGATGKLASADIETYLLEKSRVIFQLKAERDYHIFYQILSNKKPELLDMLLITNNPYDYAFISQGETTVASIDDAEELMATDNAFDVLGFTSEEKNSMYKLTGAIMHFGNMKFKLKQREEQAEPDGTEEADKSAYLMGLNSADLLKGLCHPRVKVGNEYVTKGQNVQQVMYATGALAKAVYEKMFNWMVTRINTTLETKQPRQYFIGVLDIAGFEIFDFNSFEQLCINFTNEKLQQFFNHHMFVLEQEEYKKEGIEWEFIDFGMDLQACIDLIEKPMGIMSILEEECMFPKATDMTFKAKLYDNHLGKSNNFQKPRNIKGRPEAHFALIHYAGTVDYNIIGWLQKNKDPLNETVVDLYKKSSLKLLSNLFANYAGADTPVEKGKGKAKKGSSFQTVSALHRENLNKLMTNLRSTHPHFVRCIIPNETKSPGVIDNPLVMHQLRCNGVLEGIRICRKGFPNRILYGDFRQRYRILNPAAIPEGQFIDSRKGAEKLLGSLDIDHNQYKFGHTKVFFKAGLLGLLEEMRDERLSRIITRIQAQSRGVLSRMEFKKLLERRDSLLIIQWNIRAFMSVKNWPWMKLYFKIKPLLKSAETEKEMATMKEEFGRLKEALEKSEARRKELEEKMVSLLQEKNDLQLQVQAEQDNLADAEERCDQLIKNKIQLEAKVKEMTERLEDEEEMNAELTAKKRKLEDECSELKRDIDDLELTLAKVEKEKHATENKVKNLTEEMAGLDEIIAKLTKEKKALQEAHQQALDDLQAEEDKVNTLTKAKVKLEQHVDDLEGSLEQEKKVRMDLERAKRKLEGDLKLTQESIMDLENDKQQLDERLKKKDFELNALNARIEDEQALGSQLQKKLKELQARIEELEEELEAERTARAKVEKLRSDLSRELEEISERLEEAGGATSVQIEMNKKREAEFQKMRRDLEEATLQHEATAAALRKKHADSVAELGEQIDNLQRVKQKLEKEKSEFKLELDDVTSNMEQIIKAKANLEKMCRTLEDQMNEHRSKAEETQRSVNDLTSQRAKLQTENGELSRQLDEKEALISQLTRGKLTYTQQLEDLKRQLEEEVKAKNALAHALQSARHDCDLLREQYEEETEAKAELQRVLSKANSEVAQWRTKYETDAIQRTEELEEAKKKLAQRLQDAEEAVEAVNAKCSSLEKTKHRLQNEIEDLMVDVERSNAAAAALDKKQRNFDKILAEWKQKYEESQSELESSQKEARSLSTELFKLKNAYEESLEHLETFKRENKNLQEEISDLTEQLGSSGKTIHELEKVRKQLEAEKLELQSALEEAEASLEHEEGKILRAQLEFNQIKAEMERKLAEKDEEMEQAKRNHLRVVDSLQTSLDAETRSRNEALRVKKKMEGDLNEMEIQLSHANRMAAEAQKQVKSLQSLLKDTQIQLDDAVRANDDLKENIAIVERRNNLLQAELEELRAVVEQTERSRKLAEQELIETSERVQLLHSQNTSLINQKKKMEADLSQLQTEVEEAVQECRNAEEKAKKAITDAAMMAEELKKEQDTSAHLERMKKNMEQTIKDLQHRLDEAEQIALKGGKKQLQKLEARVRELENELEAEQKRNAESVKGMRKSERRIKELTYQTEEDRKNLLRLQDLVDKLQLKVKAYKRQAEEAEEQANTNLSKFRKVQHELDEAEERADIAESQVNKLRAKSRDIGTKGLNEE
Outline: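 Left-ventricle myofibrils from Yucatan minipigs were tested with a PK/LDH-coupled system, following NADH loss at 340 nm every 1.5-2 min for 75 min. Slopes were normalized to vehicle wells and fit to a 4-parameter logistic model; values are Y75 (25% ATPase reduction) or Y125 concentrations.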

[4] = rabbit psoas myofibrils, Y75 value
[5] = porcine atria myofibrils, Y75 value (75% activity relative to no compound)
[6] = porcine ventricle myofibrils, Y75 value
[7] = Y75 value (no ‡ mark), rabbit psoas myofibrils
[8] = Y75 value (no ‡ mark), porcine atria myofibrils
[9] = Y75 value (no ‡ mark), porcine ventricle myofibrils

Cc1c(C(C)C(=O)N[C@@H](C)c2ccc(F)cc2F)c(=O)[nH]c2ccnc(I)c12 (stereo partly drawn) [compound 349]
Skeletal EC25 [1, 4]: 130 nM | Atrial EC25 [2, 5]: 0.76 µM | Ventricular EC25 [3, 6]: 5.41 µM

C[C@H](NC(=O)C1(c2cc3c(F)c(F)ccc3[nH]c2=O)CC1)c1ncc(C#N)cc1F (single isomer, unassigned) [compound 2593]
Skeletal EC25 [1, 7]: 1150 nM | Atrial EC25 [2, 8]: 0.19 µM | Ventricular EC25 [3, 9]: 1.00 µM

Cc1c(CC(=O)N[C@@H](C)c2ncc(C#N)cn2)c(=O)[nH]c2ccc(F)c(C#N)c12 (single isomer, unassigned) [compound 2016]
Skeletal EC25 [1, 7]: 50 nM | Atrial EC25 [2, 8]: 0.12 µM | Ventricular EC25 [3, 9]: 0.29 µM

CC(C(=O)N[C@@H](C)c1ccc(F)cc1F)c1cc2c(Br)cccc2[nH]c1=O (stereo partly drawn) [compound 94]
Skeletal EC25 [1, 7]: 220 nM | Atrial EC25 [2, 8]: 6.81 µM | Ventricular EC25 [3, 9]: 100.00 µM

Cc1nccc2[nH]c(=O)c(CC(=O)N[C@H](C)c3cccnc3)c(C)c12 (single isomer, unassigned) [compound 322]
Skeletal EC25 [1, 4]: 100000 nM | Atrial EC25 [2, 5]: 100.00 µM | Ventricular EC25 [3, 6]: 100.00 µM

Cc1nccc2[nH]c(=O)c(CC(=O)N[C@@H](CO)c3ncc(C#N)cc3F)c(C)c12 (single isomer, unassigned) [compound 248]
Skeletal EC25 [1, 4]: 170 nM | Atrial EC25 [2, 5]: 0.86 µM | Ventricular EC25 [3, 6]: 3.01 µM

COc1ccccc1[C@H](C)NC(=O)Cc1c(C)c2c(C)nccc2[nH]c1=O (single isomer, unassigned) [compound 319]
Skeletal EC25 [1, 4]: 100000 nM | Atrial EC25 [2, 5]: 100.00 µM | Ventricular EC25 [3, 6]: 100.00 µM

O=C(Cc1cc2cc(F)ccc2[nH]c1=O)N1CC[C@@H]2C[C@H]1c1ccccc12 (single isomer, unassigned) [compound 4503]
Skeletal EC25 [1, 7]: 1290 nM | Atrial EC25 [2, 8]: 11.52 µM | Ventricular EC25 [3, 9]: 2.98 µM

C[C@H](NC(=O)Cc1c(C2CC2)c2cc(F)ccc2[nH]c1=O)c1ncc(C#N)cn1 (single isomer, unassigned) [compound 2064]
Skeletal EC25 [1, 7]: 260 nM | Atrial EC25 [2, 8]: 77.71 µM | Ventricular EC25 [3, 9]: 32.11 µM

Cc1nccc2[nH]c(=O)c(CC(=O)N[C@H](C)c3cccc(O)c3)c(C)c12 (single isomer, unassigned) [compound 330]
Skeletal EC25 [1, 4]: 100000 nM | Atrial EC25 [2, 5]: 100.00 µM | Ventricular EC25 [3, 6]: 100.00 µM

Cc1c(CC(=O)N[C@H](C)c2ccc(C#N)cc2F)c(=O)[nH]c2ccc(F)c(C#N)c12 [compound 67]
Skeletal EC25 [1, 7]: 30 nM | Atrial EC25 [2, 8]: 0.11 µM | Ventricular EC25 [3, 9]: 0.26 µM

Cc1nc(C#N)cnc1[C@H](C)NC(=O)Cc1c(C)c2c(C#N)c(F)ccc2[nH]c1=O (single isomer, unassigned) [compound 2]
Skeletal EC25 [1, 7]: 20 nM | Atrial EC25 [2, 8]: 0.09 µM | Ventricular EC25 [3, 9]: 0.08 µM

Cc1c([C@@H](C)C(=O)N[C@@H](C)c2ccc(F)cc2F)c(=O)[nH]c2ccnc(Cl)c12 (single isomer, unassigned) [compound 365]
Skeletal EC25 [1, 4]: 30 nM | Atrial EC25 [2, 5]: 0.18 µM | Ventricular EC25 [3, 6]: 0.92 µM

C[C@H](NC(=O)[C@H](C)c1cc2c(F)cccc2[nH]c1=O)c1ccc(F)cc1F (single isomer, unassigned) [compound 103]
Skeletal EC25 [1, 7]: 1640 nM | Atrial EC25 [2, 8]: 1.13 µM | Ventricular EC25 [3, 9]: 100.00 µM

Cc1c(CC(=O)N[C@H](C)c2ncc(C#N)cc2F)c(=O)[nH]c2ccnc(C#N)c12 (single isomer, unassigned) [compound 284]
Skeletal EC25 [1, 4]: 490 nM | Atrial EC25 [2, 5]: 4.56 µM | Ventricular EC25 [3, 6]: 10.63 µM

Cc1c(CC(=O)NC(C)c2cc(C#N)c(F)s2)c(=O)[nH]c2ccc(F)c(F)c12 (stereo not drawn) [compound 4001]
Skeletal EC25 ([1]; Y75 value: concentration required to reduce myosin ATP-ase activity by 25%, Rabbit Psoas Prep pCa 25 GEOM_MEAN): 160 nM | Atrial EC25 ([2]; Y75 value: concentration required to reduce myosin ATP-ase activity by 25%, Porcine Atria Prep pCa 25 GEOM_MEAN): 0.26 µM | Ventricular EC25 ([3]; Y75 value: concentration required to reduce myosin ATP-ase activity by 25%, Porcine Ventricle Prep pCa 25 GEOM_MEAN): 0.58 µM

Cc1c(CC(=O)N[C@H](c2ccc(F)cc2F)C(C)(C)O)c(=O)[nH]c2ccnc(C#N)c12 (single isomer, unassigned) [compound 280]
Skeletal EC25 [1, 4]: 24760 nM | Atrial EC25 [2, 5]: 100.00 µM | Ventricular EC25 [3, 6]: 100.00 µM

Cc1ccc2[nH]c(=O)c(CC(=O)N[C@@H](C)c3ncc(C#N)cc3F)c(C)c2n1 [compound 469]
Skeletal EC25 [1, 4]: 550 nM | Atrial EC25 [2, 5]: 0.15 µM | Ventricular EC25 [3, 6]: 1.66 µM

C[C@@H](NC(=O)Cc1cc2cc(F)c(F)cc2[nH]c1=O)c1cnc(C#N)cn1 [compound 1098]
Skeletal EC25 [1, 7]: 17720 nM | Atrial EC25 [2, 8]: 7.06 µM | Ventricular EC25 [3, 9]: 17.06 µM

Cc1c(C(F)(F)C(=O)N[C@H](C)c2cc(C#N)ccn2)c(=O)[nH]c2ccc(F)c(F)c12 (single isomer, unassigned) [compound 2585]
Skeletal EC25 [1, 7]: 3040 nM | Atrial EC25 [2, 8]: 1.59 µM | Ventricular EC25 [3, 9]: 7.05 µM

Cc1c(CC(=O)N[C@@H](CO)c2ccc(F)cc2F)c(=O)[nH]c2cccc(C#N)c12 (single isomer, unassigned) [compound 90]
Skeletal EC25 [1, 7]: 1260 nM | Atrial EC25 [2, 8]: 23.51 µM | Ventricular EC25 [3, 9]: 100.00 µM

Cc1nccc2[nH]c(=O)c(CC(=O)N[C@H](C)c3ncc(F)cc3F)c(C)c12 (single isomer, unassigned) [compound 378]
Skeletal EC25 [1, 4]: 3180 nM | Atrial EC25 [2, 5]: 100.00 µM | Ventricular EC25 [3, 6]: 100.00 µM

C[C@H](NC(=O)Cc1cc2nc(Cl)ccc2[nH]c1=O)c1ccc(F)cc1F [compound 388]
Skeletal EC25 [1, 4]: 670 nM | Atrial EC25 [2, 5]: 1.08 µM | Ventricular EC25 [3, 6]: 38.06 µM

Cc1c(C2(C(=O)N[C@H](C)c3cccc(C#N)n3)CC2)c(=O)[nH]c2ccc(F)c(F)c12 (single isomer, unassigned) [compound 2547]
Skeletal EC25 [1, 7]: 910 nM | Atrial EC25 ([2]; ‡ Y125 value, not a Y75 value (125% activity relative to no compound), porcine atria myofibrils): 100.00‡ μM | Ventricular EC25 ([3]; ‡ Y125 value, not a Y75 value (125% activity relative to no compound), porcine ventricle myofibrils): 58.38‡ μM

COc1nccc2[nH]c(=O)c(CC(=O)N[C@H](C)c3ncc(C#N)cn3)c(C(F)(F)F)c12 (single isomer, unassigned) [compound 3007]
Skeletal EC25 [1, 4]: 100000 nM | Atrial EC25 [2, 5]: 100.00 µM | Ventricular EC25 [3, 6]: 5.73 µM

Cc1nc(C#N)cnc1[C@H](C)NC(=O)Cc1c(C)c2c(C)nccc2[nH]c1=O [compound 492]
Skeletal EC25 [1, 4]: 280 nM | Atrial EC25 [2, 5]: 0.08 µM | Ventricular EC25 [3, 6]: 0.32 µM

Cc1cc(F)cnc1[C@@H](C)NC(=O)C1(c2cc3c(F)c(F)ccc3[nH]c2=O)CC1 (single isomer, unassigned) [compound 4805]
Skeletal EC25 [1, 7]: 1910 nM | Atrial EC25 [2, 8]: 1.66 µM | Ventricular EC25 [3, 9]: 100.00 µM

Cc1c(CC(=O)N[C@H](CO)c2ccc(C#N)cc2F)c(=O)[nH]c2ccnc(C#N)c12 (single isomer, unassigned) [compound 241]
Skeletal EC25 [1, 4]: 170 nM | Atrial EC25 [2, 5]: 0.69 µM | Ventricular EC25 [3, 6]: 4.21 µM

Cc1c(C2(C(=O)N[C@H](C)c3cc(C#N)ccn3)CC2)c(=O)[nH]c2ccc(F)cc12 (single isomer, unassigned) [compound 2577]
Skeletal EC25 [1, 7]: 100000 nM | Atrial EC25 [2, 8]: 19.55 µM | Ventricular EC25 [3, 9]: 100.00 µM

Cc1c(CC(=O)N[C@@H](C)c2ncc(F)cc2F)c(=O)[nH]c2ccnc(C(F)(F)F)c12 (single isomer, unassigned) [compound 266]
Skeletal EC25 [1, 4]: 210 nM | Atrial EC25 [2, 5]: 0.25 µM | Ventricular EC25 [3, 6]: 1.11 µM

Reference: patent US12448369B2 (Edgewise Therapeutics, Inc., priority 2023, dated 2025)
